From ChEMBL document CHEMBL4373717, “Coumarin-containing hybrids and their anticancer activities” (Eur J Med Chem, 2019)
In brackets after ≈: the same amount, converted by molar mass.

Experiments:
SK-OV-3 = assay: Cytotoxicity against human SKOV3 cells assessed as reduction in cell viability by SRB assay; assay type: functional, cell-based
DU-145 = assay: Cytotoxicity against human DU145 cells assessed as reduction in cell viability by SRB assay; assay type: functional, cell-based
MCF7 [1] = assay: Cytotoxicity against human MCF7 cells assessed as reduction in cell viability by SRB assay; assay type: functional, cell-based
[2] = Cytotoxicity against human MCF7/DX cells assessed as reduction in cell viability by SRB assay; assay type: functional, cell-based
HeLa [3] = assay: Cytotoxicity against human HeLa cells assessed as reduction in cell viability by SRB assay; assay type: functional, cell-based
HepG2 [4] = assay: Cytotoxicity against human HepG2 cells assessed as reduction in cell viability by SRB assay; assay type: functional, cell-based
A549 [5] = assay: Cytotoxicity against human A549 cells assessed as reduction in cell viability by SRB assay; assay type: functional, cell-based
HeLa [6] = assay: Antiproliferative activity against human HeLa cells by MTT assay; assay type: functional, cell-based
DLD-1 = assay: Cytotoxicity against human DLD1 cells assessed as reduction in cell viability; assay type: functional, cell-based
HepG2 [7] = assay: Cytotoxicity against human HepG2 cells assessed as reduction in cell viability; assay type: functional, cell-based
NCI-H157 = assay: Cytotoxicity against human NCI-H157 cells assessed as reduction in cell viability after 48 hrs by SRB assay; assay type: functional, cell-based; conditions: NCI-H157, 48 h
BHK-21 = assay: Cytotoxicity against BHK21 cells assessed as reduction in cell viability after 48 hrs by SRB assay; assay type: cell-based; conditions: Mesocricetus auratus, BHK-21, 48 h
[8] = target: RAC-alpha serine/threonine-protein kinase (Homo sapiens, UniProt P31749); assay: Inhibition of AKT phosphorylation in human K562 cells; assay type: cell-based
HeLa [9] = assay: Cytotoxicity against human HeLa cells assessed as reduction in cell viability after 68 hrs by MTT assay; assay type: functional, cell-based
A549 [10] = assay: Cytotoxicity against human A549 cells assessed as reduction in cell viability after 68 hrs by MTT assay; assay type: functional, cell-based; conditions: A549, 68 h
MCF7 [11] = assay: Cytotoxicity against human MCF7 cells assessed as reduction in cell viability after 68 hrs by MTT assay; assay type: functional, cell-based; conditions: MCF7, 68 h
K562 = assay: Cytotoxicity against human K562 cells assessed as reduction in cell viability after 68 hrs by MTT assay; assay type: functional, cell-based; conditions: K562, 68 h

Sequence of RAC-alpha serine/threonine-protein kinase (P31749 whole entry): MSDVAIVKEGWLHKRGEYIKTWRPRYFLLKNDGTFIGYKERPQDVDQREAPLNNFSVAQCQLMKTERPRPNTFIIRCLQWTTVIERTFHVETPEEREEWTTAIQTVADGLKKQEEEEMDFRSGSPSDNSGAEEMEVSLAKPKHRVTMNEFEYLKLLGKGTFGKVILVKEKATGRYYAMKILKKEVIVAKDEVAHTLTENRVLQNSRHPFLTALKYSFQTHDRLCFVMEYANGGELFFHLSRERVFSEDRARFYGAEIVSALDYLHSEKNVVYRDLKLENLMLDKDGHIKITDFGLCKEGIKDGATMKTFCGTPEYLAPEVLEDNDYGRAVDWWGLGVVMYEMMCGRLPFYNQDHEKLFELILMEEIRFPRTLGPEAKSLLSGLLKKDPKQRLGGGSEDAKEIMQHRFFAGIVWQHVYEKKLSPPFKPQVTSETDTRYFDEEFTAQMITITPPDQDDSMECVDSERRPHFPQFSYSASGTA

`CO/N=C1\C(=O)N(CCOCCOc2ccc3c(C)cc(=O)oc3c2)c2ccc(C)cc21` showed an IC50 (SK-OV-3) of 10.3 to 50 µM, an IC50 (DU-145) of 10.3 to 50 µM and an IC50 (MCF7 [1]) of 10.3 to 50 µM. For the same molecule, the IC50 [2] was 10.3 to 50 µM, the IC50 (HeLa [3]) was 10.3 to 50 µM and the IC50 (HepG2 [4]) was 10.3 to 50 µM. For the same molecule, the IC50 (A549 [5]) was 10.3 to 50 µM.
Molecule `CCOC(=O)c1sc(N/N=C(\C)c2cc3cc(Cl)ccc3oc2=O)nc1C` has an IC50 (HeLa [6]) of 9.1 to 569 nM.
`C/C(=N\Nc1ncc(C(=O)c2cc3ccccc3oc2=O)s1)c1ccc(C)cc1` showed an EC50 (DLD-1) of 3.7 to 9.54 µg/mL (≈ 9.17 to 23.6 µM) and an EC50 (HepG2 [7]) of 3.7 to 9.54 µg/mL (≈ 9.17 to 23.6 µM).
`O=c1oc2ccccc2cc1C1=Nn2c(nnc2-c2cc3ccccc3oc2=O)SC1` gave an IC50 (NCI-H157) of 1.01 to 5.72 µM and an IC50 (BHK-21) of 1.01 to 5.72 µM.
With `Cc1c(Cc2ccc(NC(=O)Nc3ccc(F)c(F)c3)nc2)c(=O)oc2cc(O)c(C(C)(C)C)cc12` the IC50 [8] was less than 10 µM, the IC50 (HeLa [9]) was 1.66 to 7.86 µM and the IC50 (A549 [10]) was 1.66 to 7.86 µM. For the same molecule, the IC50 (MCF7 [11]) was 1.66 to 7.86 µM and the IC50 (K562) was 1.66 to 7.86 µM.
`C/C(=N\Nc1ncc(C(=O)c2cc3ccccc3oc2=O)s1)c1ccccc1` gave an EC50 (DLD-1) of 3.7 to 9.54 µg/mL (≈ 9.5 to 24.5 µM) and an EC50 (HepG2 [7]) of 3.7 to 9.54 µg/mL (≈ 9.5 to 24.5 µM).
For `CO/N=C1\C(=O)N(CCOCCOc2ccc3c(C)cc(=O)oc3c2)c2ccc(F)cc21`, the IC50 (SK-OV-3) was 10.3 to 50 µM, the IC50 (DU-145) was 10.3 to 50 µM and the IC50 (MCF7 [1]) was 10.3 to 50 µM. The IC50 [2] was 10.3 to 50 µM, the IC50 (HeLa [3]) was 10.3 to 50 µM and the IC50 (HepG2 [4]) was 10.3 to 50 µM. It also gave an IC50 (A549 [5]) of 10.3 to 50 µM.
Work on `CCOC(=O)c1sc(N/N=C(\C)c2cc3cc(Br)ccc3oc2=O)nc1C` yielded an IC50 (HeLa [6]) of 9.1 to 569 nM.
For `Cc1ccc(NC(=O)Nc2ccc(Cc3c(C)c4cc(C(C)(C)C)c(O)cc4oc3=O)cn2)cc1`, the IC50 [8] was less than 10 µM, the IC50 (HeLa [9]) was 1.66 to 9.27 µM and the IC50 (A549 [10]) was 1.66 to 9.27 µM. The IC50 (MCF7 [11]) was 1.66 to 9.27 µM and the IC50 (K562) was 1.66 to 9.27 µM.
Work on `Cc1c(Cc2ccc(NC(=O)Nc3ccc(F)cc3)nc2)c(=O)oc2cc(O)c(C(C)(C)C)cc12` yielded an IC50 [8] of less than 10 µM, an IC50 (HeLa [9]) of 1.66 to 9.27 µM and an IC50 (A549 [10]) of 1.66 to 9.27 µM. It also gave an IC50 (MCF7 [11]) of 1.66 to 9.27 µM and an IC50 (K562) of 1.66 to 9.27 µM.
Molecule `COc1ccc(/C(C)=N/Nc2ncc(C(=O)c3cc4ccccc4oc3=O)s2)cc1` has an EC50 (DLD-1) of 3.7 to 9.54 µg/mL (≈ 8.82 to 22.7 µM) and an EC50 (HepG2 [7]) of 3.7 to 9.54 µg/mL (≈ 8.82 to 22.7 µM).
`Cc1c(Cc2ccc(NC(=O)Nc3ccccc3Cl)nc2)c(=O)oc2cc(O)c(C(C)(C)C)cc12` showed an IC50 [8] of less than 10 µM, an IC50 (HeLa [9]) of 1.66 to 9.27 µM and an IC50 (A549 [10]) of 1.66 to 9.27 µM. It also gave an IC50 (MCF7 [11]) of 1.66 to 9.27 µM and an IC50 (K562) of 1.66 to 9.27 µM.
For `O=c1oc2ccccc2cc1-c1nnc2n1N=C(c1ccc(Br)cc1)CS2`, the IC50 (NCI-H157) was 1.01 to 5.72 µM and the IC50 (BHK-21) was 1.01 to 5.72 µM.
In the case of `Cc1cc(=O)oc2cc(OCCOCCN3C(=O)C(=O)c4cc(Cl)ccc43)ccc12`, the IC50 (SK-OV-3) is reported as 10.3 to 50 µM, the IC50 (DU-145) is reported as 10.3 to 50 µM and the IC50 (MCF7 [1]) is reported as 10.3 to 50 µM. It also gave an IC50 [2] of 10.3 to 50 µM, an IC50 (HeLa [3]) of 10.3 to 50 µM and an IC50 (HepG2 [4]) of 10.3 to 50 µM. It also gave an IC50 (A549 [5]) of 10.3 to 50 µM.
In the case of `COC(=O)c1sc(N/N=C(\C)c2cc3cc(Br)ccc3oc2=O)nc1C`, the IC50 (HeLa [6]) is reported as 9.1 to 569 nM.
`CC(=O)c1ccc(C2=Nn3c(nnc3-c3cc4ccccc4oc3=O)SC2)cc1` showed an IC50 (NCI-H157) of 1.01 to 5.72 µM and an IC50 (BHK-21) of 1.01 to 5.72 µM.
For `COC(=O)c1sc(N/N=C(\C)c2cc3ccccc3oc2=O)nc1C`, the IC50 (HeLa [6]) was 9.1 to 569 nM.
In the case of `Cc1cc(=O)oc2cc(OCCOCCN3C(=O)/C(=N\O)c4cc(F)ccc43)ccc12`, the IC50 (SK-OV-3) is reported as 10.3 to 50 µM, the IC50 (DU-145) is reported as 10.3 to 50 µM and the IC50 (MCF7 [1]) is reported as 10.3 to 50 µM. It also gave an IC50 [2] of 10.3 to 50 µM, an IC50 (HeLa [3]) of 10.3 to 50 µM and an IC50 (HepG2 [4]) of 10.3 to 50 µM. For the same molecule, the IC50 (A549 [5]) was 10.3 to 50 µM.
`COc1ccc(NC(=O)Nc2ccc(Cc3c(C)c4cc(C(C)(C)C)c(O)cc4oc3=O)cn2)cc1` gave an IC50 [8] of less than 10 µM, an IC50 (HeLa [9]) of 1.66 to 9.27 µM and an IC50 (A549 [10]) of 1.66 to 9.27 µM. For the same molecule, the IC50 (MCF7 [11]) was 1.66 to 9.27 µM and the IC50 (K562) was 1.66 to 9.27 µM.
Work on `O=c1oc2ccccc2cc1-c1nnc2n1N=C(c1ccc([N+](=O)[O-])cc1)CS2` yielded an IC50 (NCI-H157) of 1.01 to 5.72 µM and an IC50 (BHK-21) of 1.01 to 5.72 µM.
For `O=C(c1cnc(Nc2ccc(F)cc2)s1)c1cc2ccccc2oc1=O`, the IC50 (DLD-1) was 5.66 to 100 µg/mL (≈ 15.4 to 273 µM) and the IC50 (HepG2 [7]) was 5.66 to 100 µg/mL (≈ 15.4 to 273 µM).
`Cc1cc(=O)oc2cc(OCCOCCN3C(=O)/C(=N\O)c4ccccc43)ccc12` showed an IC50 (SK-OV-3) of 10.3 to 50 µM, an IC50 (DU-145) of 10.3 to 50 µM and an IC50 (MCF7 [1]) of 10.3 to 50 µM. It also gave an IC50 [2] of 10.3 to 50 µM, an IC50 (HeLa [3]) of 10.3 to 50 µM and an IC50 (HepG2 [4]) of 10.3 to 50 µM. The IC50 (A549 [5]) was 10.3 to 50 µM.
In the case of `COc1ccc(C2=Nn3c(nnc3-c3cc4ccccc4oc3=O)SC2)cc1`, the IC50 (NCI-H157) is reported as 1.01 to 5.72 µM and the IC50 (BHK-21) is reported as 1.01 to 5.72 µM.
`O=C(c1cnc(Nc2ccccc2)s1)c1cc2ccccc2oc1=O` gave an IC50 (DLD-1) of 5.66 to 100 µg/mL (≈ 16.2 to 287 µM) and an IC50 (HepG2 [7]) of 5.66 to 100 µg/mL (≈ 16.2 to 287 µM).
`O=c1oc2ccccc2cc1-c1nnc2n1N=C(c1ccc(F)cc1)CS2` gave an IC50 (NCI-H157) of 1.01 to 5.72 µM and an IC50 (BHK-21) of 1.01 to 5.72 µM.
